{"source": "patent US10561846B2", "about": "(priority 2000, dated 2020)", "key": {"[1]": {"test_system": "nicotinic or muscarinic acetylcholine receptors"}, "[2]": {"test_system": "human macrophage cultures", "experiment": "TNF release from LPS-stimulated human macrophage cultures (TNF ELISA)", "format": "cell-based", "settings": "for EC50: Macrophage, human macrophages, LPS 100 ng/ml 4 h, n=9, read-out: E.C.50, effective concentration that inhibited 50% of the TNF response"}, "TNF mRNA": {"test_system": "TNF mRNA", "experiment": "RNase protection assay of TNF mRNA in LPS-stimulated macrophages", "format": "cell-based, human", "settings": "agonist 100 µM, 5 min before 2 hour LPS 100 ng/ml (FIG. 2)"}, "TNF": {"test_system": "TNF", "experiment": "TNF immunohistochemistry of cell-associated TNF in human macrophage cultures", "format": "cell-based", "settings": "ACh 100 µM, 5 min before LPS 100 ng/ml, fixed after 2 hours (FIG. 3)", "protocol": "TNF immunohistochemistry was performed as follows. Human macrophages were differentiated as described above, and grown on glass chamber slides (Nunc, Naperville, Ill.). Slides were incubated in a blocking solution (1% BSA, 5% normal goat serum, 0.3% Triton X-100 in PBS) for 1 hour at room temperature and then incubated for 24 hours at 4° C. with a primary mouse anti-human TNF monoclonal antibody (Genzyme, Cambridge, Mass.) diluted 1:100 in PBS containing 0.3% Triton X-100, 0.1% BSA, and 3% normal goat serum. Washed sections were incubated for 2 hours with secondary biotinylated anti-mouse IgG (1:200, Vector Laboratories, Inc., Burlingame, Calif.). The reaction product was visualized with 0.003% hydrogen peroxide and 0.05% 3,3′-diaminobenzidine tetrahydrochloride as a chromogen. Negative controls were incubated in the absence of primary antibodies (not shown). Slides were analyzed on a light microscope (Olympus BX60, Japan) using a MetaMorth Imaging System (Universal Imaging Co., West Chester, Pa.).\nTo determine whether acetylcholine inhibited macrophage TNF synthesis or macrophage TNF release, monoclonal anti-TNF antibodies were used to label cell-associated TNF in human macrophage cultures. In those experiments (FIG. 3), cells were exposed to either ACh (100 µM), either alone or in the presence of pyridostigmine bromide (1 mM), five minutes before LPS (100 ng/ml) treatment. […]"}, "IL-6": {"test_system": "IL-6", "experiment": "IL-6 release from LPS-stimulated human macrophage cultures (ELISA)", "format": "cell-based", "settings": "ACh with pyridostigmine bromide 1 mM, LPS 100 ng/ml, 20 hours (FIG. 6)", "protocol": "(§1) To assess specificity, the release of other macrophage-derived cytokines was measured in LPS-stimulated macrophage cultures treated with acetylcholine. In those experiments, human macrophage cultures were incubated with ACh at the indicated concentrations in the presence of pyridostigmine bromide (1 mM) and LPS (100 ng/ml) for 20 hours. IL-1β (FIG. 5), IL-6 (FIG. 6) and IL-10 (FIG. 8) levels were measured in media using commercially available ELISA kits (R&D Systems Inc., Minneapolis, Minn.). IL-18 (FIG. 7) levels were determined by specific ELISA (Medical & Biological Laboratories Co., Ltd., Nagoya, Japan). Each sample was analyzed in triplicate. Data are expressed as Mean.+−.SEM from 4 separate experiments using macrophages prepared from 4 separate healthy donors."}, "IL-1β": {"test_system": "IL-1β", "experiment": "IL-1β release from LPS-stimulated human macrophage cultures (ELISA)", "format": "cell-based", "settings": "ACh with pyridostigmine bromide 1 mM, LPS 100 ng/ml, 20 hours (FIG. 5)", "protocol": "as §1"}, "IL-1β mRNA": {"test_system": "IL-1β mRNA", "experiment": "IL-1β mRNA levels, colorimetric microplate assay (Quantikine mRNA)", "format": "cell-based, human", "settings": "acetylcholine 100 nM, LPS 2 hours; n=3; LPS alone 1974", "source_text": "(§2) The molecular mechanism of acetylcholine inhibition of IL-1β and IL-6 was investigated further by measuring gene-specific mRNA levels with biotin-labeled capture oligonucleotide probes in a calorimetric microplate assay (Quantikine mRNA, R&D Systems, Inc., Minneapolis, Minn.)."}, "macrophage cultures": {"test_system": "macrophage cultures", "experiment": "MTT staining and Trypan blue exclusion of macrophage cultures treated with LPS and acetylcholine", "format": "cell-based, human", "settings": "macrophage cultures treated with LPS and acetylcholine (not shown)"}, "IL-10": {"test_system": "IL-10", "experiment": "IL-10 release from LPS-stimulated human macrophage cultures (ELISA)", "format": "cell-based", "settings": "ACh with pyridostigmine bromide 1 mM, LPS 100 ng/ml, 20 hours (FIG. 8)", "protocol": "as §1"}, "IL-6 mRNA": {"test_system": "IL-6 mRNA", "experiment": "IL-6 mRNA levels, colorimetric microplate assay (Quantikine mRNA)", "format": "cell-based, human", "settings": "LPS-stimulated macrophages; n=3; LPS alone 1716", "source_text": "as §2"}, "IL-18": {"test_system": "IL-18", "experiment": "IL-18 release from LPS-stimulated human macrophage cultures (ELISA)", "format": "cell-based", "settings": "ACh with pyridostigmine bromide 1 mM, LPS 100 ng/ml, 20 hours (FIG. 7)", "protocol": "as §1"}, "[3]": {"test_system": "differentiated human macrophages", "experiment": "Acetylcholine suppression of cytokine synthesis (TNF), 'our own studies' compared with macrophage data", "format": "cell-based", "settings": "printed as differentiated human macrophages, n=3, read-out: E.C.50 for inhibiting TNF"}, "[4]": {"test_system": "Murine RAW 264.7 macrophage-like cells", "settings": "nicotine 0.1-100 µM, 5 min before LPS 500 ng/ml, medium collected after 20 hr (FIG. 15)", "procedure": "Experiments were performed to determine whether the inhibitory effect of cholinergic agonists on proinflammatory cytokines applied to HMG-1. Murine RAW 264.7 macrophage-like cells (American Type Culture Collection, Rockville, Md., USA) were grown in culture under DMEM supplemented with 10% fetal bovine serum and 1% glutamine. When the cells were 70-80% confluent, the medium was replaced by serum-free OPTI-MEM 1 medium. […] Culture medium was collected after 20 hr. The culture medium was concentrated with a Centricon T 10 filter, then analyzed by western blot, using an anti-HMG-1polyclonal antisera (WO 00/47104) and standard methods. Band densities were determined using a Bio-Rad Imaging densitometer."}, "[5]": {"settings": "human macrophage cultures, LPS 100 ng/ml for 4 hours (FIG. 1)"}, "[6]": {"settings": "ACh with pyridostigmine bromide 1 mM"}}, "note": "Where two headings read alike, the source gives them in different places.", "data": [{"compound": "CN1[C@@H]2CC[C@H]1C[C@@H](OC(=O)C(CO)c1ccccc1)C2", "note": "(some centres unmarked) [atropine]", "values": [{"measurement": "TNF production in vehicle-treated cultures", "setting": "[1]; without acetylcholine (not shown)", "result": "Neither atropine nor α-conotoxin altered TNF production"}]}, {"compound": "C[N+](C)(C)CCOC(N)=O", "note": "[carbachol]", "values": [{"measurement": "inhibition of TNF release", "setting": "[2]; [5]", "result": "Inhibition of TNF was also observed"}]}, {"compound": "CC(=O)OCC[N+](C)(C)C.[Cl-]", "note": "[acetylcholine, acetylcholine chloride]", "values": [{"measurement": "TNF mRNA levels", "setting": "TNF mRNA", "result": "did not decrease"}, {"measurement": "inhibition of TNF release", "setting": "[1]", "result": 80, "unit": "%"}, {"measurement": "LPS-stimulated TNF immunoreactivity in macrophages", "setting": "TNF", "result": "significantly attenuated"}, {"measurement": "IL-6 release", "setting": "IL-6", "result": "dose-dependently inhibits the release"}, {"measurement": "EC50", "setting": "[2]; [6]", "result": 20.2, "unit": "nM"}, {"measurement": "inhibition of TNF release", "setting": "[2]; [5]", "result": "inhibited TNF release in a dose dependent manner"}, {"measurement": "inhibition of TNF release", "setting": "[2]; macrophage culture media conditioned by exposure to LPS for 20 hours (not shown)", "result": "Comparable inhibition of TNF release"}, {"measurement": "IL-1β release", "setting": "IL-1β", "result": "dose-dependently inhibits the release"}, {"measurement": "acetylcholine-treated LPS-stimulated IL-1β mRNA", "setting": "IL-1β mRNA", "result": 2128, "unit": "attomole/ml"}, {"measurement": "cytotoxicity (MTT, Trypan blue exclusion)", "setting": "macrophage cultures", "result": "not due to cytotoxicity"}, {"measurement": "IL-10 release", "setting": "IL-10", "result": "does not prevent the constitutive release"}, {"measurement": "acetylcholine-treated LPS-stimulated IL-6 mRNA", "setting": "IL-6 mRNA", "result": 1872, "unit": "attomole/ml"}, {"measurement": "IL-18 release", "setting": "IL-18", "result": "dose-dependently inhibits the release"}, {"measurement": "EC50", "setting": "[3]", "result": 800, "unit": "nM"}]}, {"compound": "CN1CCCC1c1cccnc1", "note": "(centres unmarked) [nicotine]", "values": [{"measurement": "TNF mRNA levels", "setting": "TNF mRNA", "result": "do not reduce LPS-stimulated TNF mRNA levels"}, {"measurement": "EC50", "setting": "[2]; [6]", "result": 8.3, "unit": "nM"}, {"measurement": "inhibition of TNF release", "setting": "[2]; [5]", "result": "inhibited TNF release in a dose dependent manner"}, {"measurement": "HMG-1 production", "setting": "[4]", "result": "inhibited HMG-1 production in a dose-dependent manner"}]}, {"compound": "C[C@@H]1O[C@H](C[N+](C)(C)C)C[C@H]1O", "note": "[muscarine]", "values": [{"measurement": "TNF mRNA levels", "setting": "TNF mRNA", "result": "do not reduce LPS-stimulated TNF mRNA levels"}, {"measurement": "EC50", "setting": "[2]; P<0.01 vs nicotine or acetylcholine", "result": 42400, "unit": "nM"}, {"measurement": "inhibition of TNF release", "setting": "[2]; [5]", "result": "inhibited TNF release in a dose dependent manner"}]}]}
